From the NIST ThermoML archive (doi:10.1016/j.jct.2008.08.010)

Experiments:
[1] = 101.33 kPa, Liquid, Vibrating tube method
[2] = refractive index (Na D-line) (dimensionless); settings: 101.33 kPa, Liquid, Standard Abbe refractometry

CCCCn1cc[n+](C)c1.COS(=O)(=O)[O-] [1-butyl-3-methylimidazolium methyl sulfate]
Settings	mass density, [1] [kg/m3]	refractive index, [2]
298.2 K	1205.7	1.4792
299.2 K	1205	1.4789
300.2 K	1204.4	1.4787
301.2 K	1203.8	1.4784
302.2 K	1203.1	1.4782
303.2 K	1202.5	1.4779
304.2 K	1201.9	1.4776
305.2 K	1201.2	1.4774
306.2 K	1200.6	1.4771
307.2 K	1199.9	1.4768
308.2 K	1199.3	1.4766
313.2 K	1196.2	–
318.2 K	1193	–
323.2 K	1189.9	–
333.2 K	1183.5	–
343.2 K	1177	–
353.2 K	1170.6	–

CCCCn1cc[n+](C)c1.O=S(=O)([O-])C(F)(F)F [1-butyl-3-methylimidazolium trifluoromethanesulfonate]
Settings	mass density, [1] [kg/m3]	refractive index, [2]
298.2 K	1303.8	1.4368
299.2 K	1303	1.4366
300.2 K	1302.3	1.4364
301.2 K	1301.5	1.4362
302.2 K	1300.8	1.436
303.2 K	1300	1.4357
304.2 K	1299.2	1.4355
305.2 K	1298.5	1.4352
306.2 K	1297.7	1.435
307.2 K	1297	1.4348
308.2 K	1296.2	1.4346
313.2 K	1292.4	–
318.2 K	1288.6	–
323.2 K	1284.7	–
333.2 K	1277.1	–
343.2 K	1269.5	–
353.2 K	1261.9	–

CCCCn1cc[n+](C)c1.F[B-](F)(F)F [1-butyl-3-methylimidazolium tetrafluoroborate]
Settings	mass density, [1] [kg/m3]	refractive index, [2]
298.2 K	1201	1.4218
299.2 K	1200.3	1.4216
300.2 K	1199.6	1.4213
301.2 K	1199	1.4211
302.2 K	1198.3	1.4208
303.2 K	1197.6	1.4206
304.2 K	1196.9	1.4204
305.2 K	1196.2	1.4201
306.2 K	1195.6	1.4199
307.2 K	1194.9	1.4197
308.2 K	1194.2	1.4195
313.2 K	1190.8	–
318.2 K	1187.4	–
323.2 K	1184	–
333.2 K	1177.2	–
343.2 K	1170.4	–
353.2 K	1163.6	–

CCCCn1cc[n+](C)c1.F[P-](F)(F)(F)(F)F [1-butyl-3-methylimidazolium hexafluorophosphate]
Settings	mass density, [1] [kg/m3]	refractive index, [2]
298.2 K	1363.9	1.4095
299.2 K	1363.2	1.4093
300.2 K	1362.4	1.4091
301.2 K	1361.6	1.4089
302.2 K	1360.8	1.4087
303.2 K	1360.1	1.4085
304.2 K	1359.3	1.4083
305.2 K	1358.5	1.4081
306.2 K	1357.8	1.4079
307.2 K	1357	1.4077
308.2 K	1356.2	1.4075
313.2 K	1352.8	–
318.2 K	1348.8	–
323.2 K	1344.9	–
333.2 K	1336.9	–
343.2 K	1329	–
353.2 K	1321.1	–
